#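 Compound exposure: 48 hours, 5 concentrations, 96-well plates. GI50 = concentration required for 50% inhibition of growth.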 The source made the active and inactive calls. Rule as the data show it: active = GI50 up to about 1.1 µM and inactive = higher.
# Tests used:
# Experiment in all cases: NCI-60 cell line screen, 48 h
# 786-0 = system: 786-0
# A498 = system: A498
# A549 = system: A549
# ACHN = system: ACHN
# BT-549 = system: BT-549
# CAKI-1 = system: CAKI-1
# CCRF-CEM = system: CCRF-CEM
# COLO 205 = system: COLO 205
# DU-145 = system: DU-145
# HCC 2998 = system: HCC 2998
# HCT-116 = system: HCT-116
# HCT-15 = system: HCT-15
# HL-60 = system: HL-60
# HOP-62 = system: HOP-62
# HOP-92 = system: HOP-92
# HT-29 = system: HT-29
# Hs-578T = system: Hs-578T
# IGROV-1 = system: IGROV-1
# K562 = system: K562
# KM12 = system: KM12
# LOX IMVI = system: LOX IMVI
# M14 = system: M14
# MCF7 = system: MCF7
# MDA-MB-231 = system: MDA-MB-231
# MDA-MB-435 = system: MDA-MB-435
# MDA-N = system: MDA-N
# Malme-3M = system: Malme-3M
# NCI-H226 = system: NCI-H226
# NCI-H23 = system: NCI-H23
# NCI-H460 = system: NCI-H460
# NCI-H522 = system: NCI-H522
# NCI/ADR-RES = system: NCI/ADR-RES
# OVCAR-3 = system: OVCAR-3
# OVCAR-4 = system: OVCAR-4
# OVCAR-5 = system: OVCAR-5
# OVCAR-8 = system: OVCAR-8
# PC-3 = system: PC-3
# RPMI-8226 = system: RPMI-8226
# RXF 393 = system: RXF 393
# SF-268 = system: SF-268
# SF-295 = system: SF-295
# SF-539 = system: SF-539
# SK-MEL-28 = system: SK-MEL-28
# SK-MEL-2 = system: SK-MEL-2
# SK-MEL-5 = system: SK-MEL-5
# SK-OV-3 = system: SK-OV-3
# SN12C = system: SN12C
# SNB-19 = system: SNB-19
# SNB-75 = system: SNB-75
# SR = system: SR
# SW-620 = system: SW-620
# TK-10 = system: TK-10
# U-251 = system: U-251
# UACC-257 = system: UACC-257
# UACC-62 = system: UACC-62
# UO-31 = system: UO-31
# MOLT-4 = system: MOLT-4
# EKVX = system: EKVX
structure (smiles),measurement,setting,value
CC12OC1(C)C1C(=O)OCC1C2=O (centres undefined),GI50,786-0,70 µM (inactive)
same,GI50,A498,> 100 µM (inactive)
same,GI50,A549,> 100 µM (inactive)
same,GI50,ACHN,62.1 µM (inactive)
same,GI50,BT-549,> 100 µM (inactive)
same,GI50,CAKI-1,29.2 µM (inactive)
same,GI50,CCRF-CEM,17.5 µM (inactive)
same,GI50,COLO 205,37.4 µM (inactive)
same,GI50,DU-145,> 100 µM (inactive)
same,GI50,HCC 2998,> 100 µM (inactive)
same,GI50,HCT-116,66.4 µM (inactive)
same,GI50,HCT-15,55 µM
same,GI50,HL-60,20.6 µM (inactive)
same,GI50,HOP-62,41 µM (inactive)
same,GI50,HOP-92,> 100 µM (inactive)
same,GI50,HT-29,49.7 µM (inactive)
same,GI50,Hs-578T,22.1 µM (inactive)
same,GI50,IGROV-1,32.4 µM (inactive)
same,GI50,K562,28.2 µM (inactive)
same,GI50,KM12,44.7 µM (inactive)
same,GI50,LOX IMVI,> 100 µM (inactive)
same,GI50,M14,49.4 µM (inactive)
same,GI50,MCF7,61.7 µM (inactive)
same,GI50,MDA-MB-231,> 100 µM (inactive)
same,GI50,MDA-MB-435,> 100 µM (inactive)
same,GI50,MDA-N,> 100 µM (inactive)
same,GI50,Malme-3M,17.6 µM (inactive)
same,GI50,NCI-H226,45.9 µM (inactive)
same,GI50,NCI-H23,> 100 µM (inactive)
same,GI50,NCI-H460,> 100 µM (inactive)
same,GI50,NCI-H522,14.7 µM (inactive)
same,GI50,NCI/ADR-RES,51.3 µM (inactive)
same,GI50,OVCAR-3,38.9 µM (inactive)
same,GI50,OVCAR-4,> 100 µM (inactive)
same,GI50,OVCAR-5,59.4 µM (inactive)
same,GI50,OVCAR-8,49.9 µM (inactive)
same,GI50,PC-3,52.8 µM (inactive)
same,GI50,RPMI-8226,> 100 µM (inactive)
same,GI50,RXF 393,31.8 µM (inactive)
same,GI50,SF-268,37.8 µM (inactive)
same,GI50,SF-295,83.8 µM (inactive)
same,GI50,SF-539,32.5 µM (inactive)
same,GI50,SK-MEL-28,> 100 µM (inactive)
same,GI50,SK-MEL-2,50.5 µM (inactive)
same,GI50,SK-MEL-5,> 100 µM (inactive)
same,GI50,SK-OV-3,> 100 µM (inactive)
same,GI50,SN12C,26.7 µM (inactive)
same,GI50,SNB-19,61.1 µM (inactive)
same,GI50,SNB-75,99.3 µM (inactive)
same,GI50,SR,21 µM (inactive)
same,GI50,SW-620,45.9 µM (inactive)
same,GI50,TK-10,> 100 µM (inactive)
same,GI50,U-251,> 100 µM (inactive)
same,GI50,UACC-257,> 100 µM (inactive)
same,GI50,UACC-62,99.3 µM (inactive)
same,GI50,UO-31,> 100 µM (inactive)
CC(=O)OCC1OC(n2c3c(c(-c4ccco4)c(C#N)c2=S)CCC3)C(OC(C)=O)C(OC(C)=O)C1OC(C)=O (centres undefined),GI50,786-0,49.7 µM (inactive)
same,GI50,A549,> 100 µM (inactive)
same,GI50,ACHN,> 100 µM (inactive)
same,GI50,BT-549,43.9 µM (inactive)
same,GI50,CAKI-1,55.1 µM (inactive)
same,GI50,CCRF-CEM,8.09 µM (inactive)
same,GI50,COLO 205,> 100 µM (inactive)
same,GI50,DU-145,> 100 µM (inactive)
same,GI50,HCC 2998,> 100 µM (inactive)
same,GI50,HCT-116,> 100 µM (inactive)
same,GI50,HCT-15,> 100 µM
same,GI50,HL-60,82.8 µM (inactive)
same,GI50,HOP-62,> 100 µM (inactive)
same,GI50,HOP-92,15.6 µM (inactive)
same,GI50,HT-29,> 100 µM (inactive)
same,GI50,Hs-578T,40.9 µM (inactive)
same,GI50,IGROV-1,69.3 µM (inactive)
same,GI50,K562,21.9 µM (inactive)
same,GI50,KM12,> 100 µM (inactive)
same,GI50,LOX IMVI,60.1 µM (inactive)
same,GI50,M14,> 100 µM (inactive)
same,GI50,MCF7,63.8 µM (inactive)
same,GI50,MDA-MB-435,68.9 µM (inactive)
same,GI50,MDA-N,> 100 µM (inactive)
same,GI50,MOLT-4,4.42 µM (inactive)
same,GI50,Malme-3M,> 100 µM (inactive)
same,GI50,NCI-H23,> 100 µM (inactive)
same,GI50,NCI-H460,> 100 µM (inactive)
same,GI50,NCI/ADR-RES,37.8 µM (inactive)
same,GI50,OVCAR-3,> 100 µM (inactive)
same,GI50,OVCAR-4,56.8 µM (inactive)
same,GI50,OVCAR-5,> 100 µM (inactive)
same,GI50,PC-3,49.7 µM (inactive)
same,GI50,RPMI-8226,28.1 µM (inactive)
same,GI50,RXF 393,20.2 µM (inactive)
same,GI50,SF-268,> 100 µM (inactive)
same,GI50,SF-295,> 100 µM (inactive)
same,GI50,SF-539,> 100 µM (inactive)
same,GI50,SK-MEL-28,> 100 µM (inactive)
same,GI50,SK-MEL-2,> 100 µM (inactive)
same,GI50,SK-MEL-5,31.6 µM (inactive)
same,GI50,SK-OV-3,> 100 µM (inactive)
same,GI50,SN12C,> 100 µM (inactive)
same,GI50,SNB-19,> 100 µM (inactive)
same,GI50,SNB-75,23.4 µM (inactive)
same,GI50,SR,31.6 µM (inactive)
same,GI50,SW-620,55.8 µM (inactive)
same,GI50,TK-10,69.3 µM (inactive)
same,GI50,U-251,54.6 µM (inactive)
same,GI50,UACC-257,> 100 µM (inactive)
same,GI50,UACC-62,42.2 µM (inactive)
same,GI50,UO-31,80.7 µM (inactive)
Cc1ccc(C(O)c2cnc(C)n2Cc2ccccc2)cc1 (centres undefined),GI50,786-0,> 100 µM (inactive)
same,GI50,A498,> 100 µM (inactive)
same,GI50,A549,> 100 µM (inactive)
same,GI50,ACHN,> 100 µM (inactive)
same,GI50,BT-549,> 100 µM (inactive)
same,GI50,CAKI-1,> 100 µM (inactive)
same,GI50,COLO 205,> 100 µM (inactive)
same,GI50,DU-145,> 100 µM (inactive)
same,GI50,EKVX,> 100 µM (inactive)
same,GI50,HCC 2998,> 100 µM (inactive)
same,GI50,HCT-116,> 100 µM (inactive)
same,GI50,HCT-15,> 100 µM
same,GI50,HL-60,6.43 µM (inactive)
same,GI50,HOP-62,> 100 µM (inactive)
same,GI50,HOP-92,> 100 µM (inactive)
same,GI50,HT-29,> 100 µM (inactive)
same,GI50,Hs-578T,> 100 µM (inactive)
same,GI50,IGROV-1,> 100 µM (inactive)
same,GI50,K562,> 100 µM (inactive)
same,GI50,KM12,> 100 µM (inactive)
same,GI50,LOX IMVI,> 100 µM (inactive)
same,GI50,M14,> 100 µM (inactive)
same,GI50,MCF7,> 100 µM (inactive)
same,GI50,MDA-MB-231,> 100 µM (inactive)
same,GI50,MDA-MB-435,> 100 µM (inactive)
same,GI50,MDA-N,> 100 µM (inactive)
same,GI50,Malme-3M,> 100 µM (inactive)
same,GI50,NCI-H226,> 100 µM (inactive)
same,GI50,NCI-H23,> 100 µM (inactive)
same,GI50,NCI-H460,> 100 µM (inactive)
same,GI50,NCI-H522,> 100 µM (inactive)
same,GI50,NCI/ADR-RES,85.3 µM (inactive)
same,GI50,OVCAR-3,> 100 µM (inactive)
same,GI50,OVCAR-4,> 100 µM (inactive)
same,GI50,OVCAR-5,> 100 µM (inactive)
same,GI50,OVCAR-8,> 100 µM (inactive)
same,GI50,PC-3,> 100 µM (inactive)
same,GI50,RPMI-8226,46 µM (inactive)
same,GI50,RXF 393,> 100 µM (inactive)
same,GI50,SF-268,> 100 µM (inactive)
same,GI50,SF-295,> 100 µM (inactive)
same,GI50,SF-539,> 100 µM (inactive)
same,GI50,SK-MEL-28,> 100 µM (inactive)
same,GI50,SK-MEL-2,> 100 µM (inactive)
same,GI50,SK-MEL-5,79.1 µM (inactive)
same,GI50,SK-OV-3,> 100 µM (inactive)
same,GI50,SN12C,> 100 µM (inactive)
same,GI50,SNB-19,> 100 µM (inactive)
same,GI50,SNB-75,> 100 µM (inactive)
same,GI50,SR,> 100 µM (inactive)
same,GI50,SW-620,> 100 µM (inactive)
same,GI50,TK-10,> 100 µM (inactive)
same,GI50,U-251,> 100 µM (inactive)
same,GI50,UACC-257,67.1 µM (inactive)
same,GI50,UACC-62,> 100 µM (inactive)
same,GI50,UO-31,> 100 µM (inactive)

# From ChEMBL document CHEMBL1201862, “PubChem BioAssay data set” (2004)
